# Assay results as given in patent US20090286740A1, “PEPTIDES AND DERIVATIVES THEREOF, THE MANUFACTURING THEREOF AS WELL AS THEIR USE FOR PREPARING A THERAPEUTICALLY AND/OR PREVENTIVELY ACTIVE PHARMACEUTICAL COMPOSITION” (FIBREX MEDICAL RESEARCH & DEVELOPMENT GMBH, priority 2008, published 2009).
# Where no end group is shown, it is not given here.
# B1: Gly-His-Arg-Pro-Leu-Ala-Pro-Ser-Leu-Arg-Pro-Ala-Pro-Pro-Pro-Ile-Ser-Gly-Gly-Gly-Tyr-Arg-OH (peptide)
# peptide: GHRPLAPSLRPAPPPISGGGYR-OH
# Legend:
# RhoA = test: thrombin induced RhoA activation in HUVEC culture (active RhoA pull-down, blot); assay type: cell-based, human; settings: 5 U/ml thrombin alone, 5 min
# Method: The biological effect of the compounds was established in a model thrombin induced RhoA activation in human umbilical vein endothelial cell (HUVEC) culture.
# HUVEC are grown to confluence under standard conditions. Before induction of Rho activity HUVEC were starved for 4 h by using IMDM (Gibco) without growth factor and serum supplements. After the starvation period 5 U/ml Thrombin (Calbiochem) or 5 U thrombin plus 50 μg/ml of test compound are added to the starvation medium for 1, 5 and 10 min. Active RhoA was isolated using Rho Assay Reagent from Upstate according to manufactures instructions. Isolates were separated on a 15% polyacrylamid gel and blotted on Nitrocellulose-Membrane (Bio-Rad). RhoA was dedected by using Anti-Rho (-A, -B, -C), clone55 from Upstate (1:500).
# [1] = target: T1, vascular endothelial (VE) cadherin (human, UniProt P33151 48-784); test: cell-based or functional assay
# T1 sequence (looked up): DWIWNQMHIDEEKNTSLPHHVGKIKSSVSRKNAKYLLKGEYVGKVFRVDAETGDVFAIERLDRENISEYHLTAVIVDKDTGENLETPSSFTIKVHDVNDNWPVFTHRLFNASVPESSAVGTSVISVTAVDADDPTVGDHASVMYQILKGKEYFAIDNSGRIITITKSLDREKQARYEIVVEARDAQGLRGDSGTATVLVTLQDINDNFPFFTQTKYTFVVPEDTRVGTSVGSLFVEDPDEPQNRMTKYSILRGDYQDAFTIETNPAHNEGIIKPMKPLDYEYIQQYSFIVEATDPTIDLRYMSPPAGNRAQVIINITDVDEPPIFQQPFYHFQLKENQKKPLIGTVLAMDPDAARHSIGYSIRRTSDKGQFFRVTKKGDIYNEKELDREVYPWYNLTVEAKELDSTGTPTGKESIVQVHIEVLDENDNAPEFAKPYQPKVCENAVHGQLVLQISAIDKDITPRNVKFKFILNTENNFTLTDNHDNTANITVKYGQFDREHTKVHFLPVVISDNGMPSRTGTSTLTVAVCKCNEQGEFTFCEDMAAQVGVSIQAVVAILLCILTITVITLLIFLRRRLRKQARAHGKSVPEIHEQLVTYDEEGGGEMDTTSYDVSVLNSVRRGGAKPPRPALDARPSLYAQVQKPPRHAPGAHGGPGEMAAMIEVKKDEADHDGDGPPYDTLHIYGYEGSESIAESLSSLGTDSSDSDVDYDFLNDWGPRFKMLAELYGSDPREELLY
Molecule,Relative RhoA stimulation compared to unstimulated control (RhoA),"Relative RhoA stimulation compared to unstimulated control (thrombin-induced RhoA activation in HUVEC, Rho pull-down and blot; thrombin alone 5 min = 2.6) [1]"
thrombin,2.6,
B1,,1.2 fold relative to unstimulated control
